A short description of the test: Ionophoric activity across HPTS dye encapsulated pH 7 egg yolk L-alpha-phosphatidylcholine-based large unilamellar vesicles assessed as chloride ion transport by measuring induction of pH discharge in presence of NaCl loaded external vesicles by fluorescence method.

For `O=C(Nc1ccccc1)Nc1ccc(N2COc3c(c4c(c5c3CN(c3ccc(NC(=O)Nc6ccccc6)cc3)CO5)CN(c3ccc(NC(=O)Nc5ccccc5)cc3)CO4)C2)cc1`, the EC50 amounted to 0.49 mol%.

The record behind these values is ChEMBL document CHEMBL4014291, “Tripodal squaramide conjugates as highly effective transmembrane anion transporters” (Bioorg Med Chem Lett, 2017).
